{"source": "patent US20220324770A1", "about": "“NITRIFICATION INHIBITORS” (The University of Melbourne, priority 2019, published 2022)", "key": {"Dahlen soil": {"tested_on": "Dahlen soil", "experiment": "Soil thin-layer chromatography (TLC) leaching study, Dahlen soil", "type": "physicochemical", "protocol": "(§1) TLC plates were prepared based on methods described in the literature (Helling, C. S., Turner, B. C, Science 1968, 162, 562-563; Mohammad, A., Jabeen, N., JPC—Journal of Planar Chromatography—Modern TLC 2003, 16, 137-143). Masking tape (3 layers, ˜[…] total thickness) was used to outline three columns (4 cm W×12 cm H) on a glass TLC plate (20×20 cm). A slurry of freshly ground soil in distilled H2O (˜2:3 m/v) was then poured onto the prepared plate and spread evenly using a glass rod. Once even, the plate was dried overnight in an oven at 35° C. Careful removal of the masking tape afforded the TLC plate ready for sample application.\n(§2) Samples of DMP (the active core of DMPP) or Compound 16 (˜1 mg) dissolved in acetone (100 μL) were pipetted in a straight line across the soil, 2 cm above the base of the plate. Application band thickness was kept under 0.5 cm. After 30 mins of drying time, the TLC plate was developed inside a glass developing chamber with distilled H2O (depth of 0.5 cm) until the solvent front reached the top of the soil (˜1 hr). […] The plate was then allowed to air dry overnight.\n(§3) Once dry, the plate was divided into six horizontal bands corresponding to Rf values of: (1) <0.05 (baseline), (2) 0.05 to 0.25, (3) 0.25 to 0.45, (4) 0.45 to 0.65, (5) 0.65 to 0.85, and (6) 0.85 to 1. In sequence, soil in each band was carefully scraped off the glass backing and collected in vials. Special care was taken to avoid cross-contamination between soil of different bands, and the separate channels.\n(§4) Individual soil bands collected from the TLC plate were extracted as follows: • 1. Addition of an aqueous solution of CaCl2/MgSO4 (0.01M and 0.45M respectively, 2 mL). • 2. Sonication for 5 minutes then manual shaking for 30 seconds. • 3. Addition of methyl-tert-butyl ether (MTBE, 2 mL) then manual shaking for 30 seconds. • 4. Sonication for 10 minutes then manual shaking for 30 seconds. • 5. Rested until soil began to settle, then frozen overnight at −20° C. • 6. After partial defrosting, the ethereal extract was filtered through nylon syringe filters (FilterBio®, 13 mm diameter, 0.45 µm pore size).\n(§5) The filtered ethereal extracts (450 μL) were spiked with 50 μL of a standard solution of either cyclododecanone in MTBE (1.97 mg/mL, for DMP-treated samples) or cyclooctanone in MTBE (6.37 mg/mL, for 16-treated samples). Samples were then directly analysed by GC-MS (method: 70° C. for 5 mins, then ramp 10° C./min to 250° C., hold at 250° C. for 17 mins [total run time=40 minutes]) to analyse the presence or absence of the inhibitor in each soil band.\n(§6) GC-MS peak areas calculated for the standards cyclooctanone (Rt=9.1 mins) and cyclododecanone (Rt=15.8 mins) were compared to those calculated for Compound 16 (Rt=13.9 mins) and DMP (Rt=7.6 mins) respectively, for each soil sample extract where inhibitor was detected as follows:\n(§7) As each treatment was run in triplicate, mean values are reported for detected inhibitor percentages for each Rf band, with errors presented as the standard deviation.\nas §2, with “the DCD” for “DMP (the active core of DMPP) or Compound 16”, “methanol (300” for “acetone (100”, “in” for “with”\n(§8) Individual soil bands collected from the TLC plate were extracted as follows: • 1. Addition of methanol (2 mL). • 2. Manual shaking for 30 seconds following sonication for 15 minutes. • 3. Once soil began to settle, the methanolic extract was filtered through nylon syringe filters (FilterBio®, 13 mm diameter, 0.45 µm pore size). • 4. 300 μL of the methanolic extracts were evaporated under nitrogen flow, and then the residues was taken up in ultrapure acetonitrile (1 mL). • 5. […]"}, "South Johnstone soil": {"tested_on": "South Johnstone soil", "experiment": "Soil thin-layer chromatography (TLC) leaching study, South Johnstone soil", "type": "physicochemical", "conditions": "for Detected Inhibitor (%): South Johnstone soil TLC", "protocol": "as §1, §2, §3, §4, §5, §6, §7\nas §2, with “the DCD” for “DMP (the active core of DMPP) or Compound 16”, “methanol (300” for “acetone (100”, “in” for “with”\nas §8"}}}
{"compound": "CCCc1cn(CCC)nn1", "note": "[Compound 16, 1,4-dipropyl-1H-1,2,3-triazole]", "values": [{"measurement": "Rf range in which the majority of the inhibitor was detected", "setting": "Dahlen soil; Dahlen soil TLC", "result": "0.25-0.45"}, {"measurement": "Detected Inhibitor (%)", "setting": "Dahlen soil; Dahlen soil TLC, Rf 0.05-0.25", "result": "3 ± 4", "unit": "%"}, {"measurement": "Detected Inhibitor (%)", "setting": "Dahlen soil; Dahlen soil TLC, Rf 0.25-0.45", "result": "58 ± 14", "unit": "%"}, {"measurement": "Detected Inhibitor (%)", "setting": "Dahlen soil; Dahlen soil TLC, Rf 0.45-0.65", "result": "38 ± 16", "unit": "%"}, {"measurement": "Detected Inhibitor (%)", "setting": "Dahlen soil; Dahlen soil TLC, Rf 0.65-0.85", "result": "1 ± 1", "unit": "%"}, {"measurement": "mobility in soil TLC", "setting": "Dahlen soil; neutral Dahlen soil", "result": "reduced mobility compared to DMP"}, {"measurement": "leachability (conclusion)", "setting": "Dahlen soil; neutral soils", "result": "lower leachability than DMP and DCD"}, {"measurement": "Detected Inhibitor (%)", "setting": "South Johnstone soil; Rf 0.05-0.25", "result": "1 ± 1", "unit": "%"}, {"measurement": "Detected Inhibitor (%)", "setting": "South Johnstone soil; Rf 0.25-0.45", "result": "5 ± 6", "unit": "%"}, {"measurement": "Detected Inhibitor (%)", "setting": "South Johnstone soil; Rf 0.45-0.65", "result": "34 ± 5", "unit": "%"}, {"measurement": "Detected Inhibitor (%)", "setting": "South Johnstone soil; Rf 0.65-0.85", "result": "49 ± 9", "unit": "%"}, {"measurement": "Detected Inhibitor (%)", "setting": "South Johnstone soil; Rf 0.85-1", "result": "11 ± 3", "unit": "%"}, {"measurement": "leaching tendency (conclusion)", "setting": "South Johnstone soil; acidic soils", "result": "lower-to-similar leaching tendencies to DCD"}]}
